A value given as a limit tells only on which side of the number the result lay.

Common to all, as to conditions: read-out: IC50
Assay [1] deals with Mitogen-activated protein kinase 8 (Homo sapiens, UniProt P45983). The experiment in a line: Inhibition of JNK1 expressed in Escherichia coli or baculovirus-infected insect cells by TR-FRET assay. Background: TR-FRET usually uses a lanthanide donor and a delayed reading to cut background.
Assay [2] addresses T1, Inhibitor of nuclear factor kappa-B kinase subunit beta (Homo sapiens, UniProt O14920).
T1 sequence (O14920 whole entry): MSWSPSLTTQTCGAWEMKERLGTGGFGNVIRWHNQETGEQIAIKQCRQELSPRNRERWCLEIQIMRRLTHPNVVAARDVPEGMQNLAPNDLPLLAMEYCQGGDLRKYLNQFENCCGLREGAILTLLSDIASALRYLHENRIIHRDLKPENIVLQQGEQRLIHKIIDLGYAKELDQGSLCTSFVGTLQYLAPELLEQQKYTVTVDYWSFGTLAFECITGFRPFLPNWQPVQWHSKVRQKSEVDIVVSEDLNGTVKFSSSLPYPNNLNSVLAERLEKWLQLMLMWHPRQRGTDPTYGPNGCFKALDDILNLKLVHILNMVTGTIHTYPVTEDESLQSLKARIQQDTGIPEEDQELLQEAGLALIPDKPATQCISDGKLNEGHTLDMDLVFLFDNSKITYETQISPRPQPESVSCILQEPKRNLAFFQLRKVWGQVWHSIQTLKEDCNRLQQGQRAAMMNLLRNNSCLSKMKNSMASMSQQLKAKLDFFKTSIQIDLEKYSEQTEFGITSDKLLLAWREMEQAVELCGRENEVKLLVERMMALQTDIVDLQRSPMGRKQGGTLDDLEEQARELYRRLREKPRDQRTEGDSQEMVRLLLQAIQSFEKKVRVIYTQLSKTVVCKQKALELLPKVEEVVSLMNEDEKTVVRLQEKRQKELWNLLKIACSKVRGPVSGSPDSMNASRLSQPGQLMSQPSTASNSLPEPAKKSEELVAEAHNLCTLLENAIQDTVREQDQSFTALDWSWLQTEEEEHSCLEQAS
Kind of assay: biochemical. Type of assay: cell-based.

Assay [3] concerns the target RAC-alpha serine/threonine-protein kinase (Homo sapiens, UniProt P31749). Kind of assay: Inhibition of AKT1 expressed in Escherichia coli or baculovirus-infected insect cells by scintillation proximity assay. On the technique in general: SPA uses beads or plates that emit light when radiolabelled molecules are held near them.

Chain of RAC-alpha serine/threonine-protein kinase (P31749 whole entry): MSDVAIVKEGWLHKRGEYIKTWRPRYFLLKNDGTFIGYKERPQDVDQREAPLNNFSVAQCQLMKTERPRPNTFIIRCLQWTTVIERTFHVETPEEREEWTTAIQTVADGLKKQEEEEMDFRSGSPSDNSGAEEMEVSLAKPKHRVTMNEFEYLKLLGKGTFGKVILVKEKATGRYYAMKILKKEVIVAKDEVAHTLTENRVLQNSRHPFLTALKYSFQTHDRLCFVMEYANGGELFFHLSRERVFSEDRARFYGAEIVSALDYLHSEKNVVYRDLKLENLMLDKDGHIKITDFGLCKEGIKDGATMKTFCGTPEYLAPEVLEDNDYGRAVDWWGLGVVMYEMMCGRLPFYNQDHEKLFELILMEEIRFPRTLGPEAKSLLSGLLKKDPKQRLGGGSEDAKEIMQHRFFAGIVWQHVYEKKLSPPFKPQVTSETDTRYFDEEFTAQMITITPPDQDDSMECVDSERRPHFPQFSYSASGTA
Chain of Mitogen-activated protein kinase 8 (P45983 whole entry): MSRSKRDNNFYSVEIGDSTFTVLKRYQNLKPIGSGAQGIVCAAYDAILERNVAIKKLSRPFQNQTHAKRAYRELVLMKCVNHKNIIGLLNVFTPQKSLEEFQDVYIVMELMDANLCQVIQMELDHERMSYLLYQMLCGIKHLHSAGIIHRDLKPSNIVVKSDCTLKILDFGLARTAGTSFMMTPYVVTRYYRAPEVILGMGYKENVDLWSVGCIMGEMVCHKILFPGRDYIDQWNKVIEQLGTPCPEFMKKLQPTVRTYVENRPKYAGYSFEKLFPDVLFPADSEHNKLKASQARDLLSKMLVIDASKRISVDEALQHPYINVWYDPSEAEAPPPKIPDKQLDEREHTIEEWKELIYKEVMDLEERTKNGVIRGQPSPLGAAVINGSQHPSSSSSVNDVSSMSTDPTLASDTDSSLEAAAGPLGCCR

A word on the IC50: it is the concentration that inhibits the measured activity by half. Take `Nc1ccc(-c2cnc3[nH]cc(-c4ccoc4)c3c2)cc1`: the IC50 in assay [1] was under 0.5 µM.

On to `Cc1cc2c(-c3ccc(S(=O)(=O)N(C)CCO)cc3)ccnc2[nH]1`, for which the 50% inhibitory concentration (IC50) in assay [2] turned out to be 0.015 µM.

For the compound `NCC(NC(=O)c1ccc(-c2ccnc3[nH]ccc23)s1)c1ccccc1` (stereo not drawn), the IC50 in assay [3] was 0.19 µM.

(Values after ChEMBL document CHEMBL1817560, “Selectivity of kinase inhibitor fragments” (J Med Chem, 2011).)
